Source: patent publication US11782064B2, “Methods for simultaneous measurement of multiple biological signals from spectrally identical fluorescent reporters” (Massachusetts Institute of Technology, priority 2019, dated 2023)

Test system: cultured mouse hippocampal neurons
Test: Multiplexed imaging of four or five reporters under forskolin, PMA or DHPG
Format: cell-based
Experimental: Live neuron imaging was performed on a spinning disk confocal microscope (a Yokogawa® CSU-W1 Confocal Scanner Unit on a Nikon® Eclipse T1 microscope) equipped with a 40×1.15 NA water immersion objective (Nikon® MRD77410) and a Zyla® PLUS 4.2 Megapixel camera controlled by NIS-Elements® AR software. The filter set for GFP was used for imaging GFP intensity-based reporters (GCaMP6f and cAMPr), and the filter set for GFP and the 405 nm excitation filter was used for imaging 488 nm/405 nm excitation ratiometric reporters (ExRaiAKAR and ExRaiCKAR). The filter set for RFP was used for imaging RFP intensity-based reporters (RAB_EKARev). For electrophysiological characterizations of GCaMP6f and S1-GCaMP6f (FIGS. 8D-G, 9A-Q), neurons were recorded in the GFP emission channel at a single focal plane at 20 milliseconds per frame (50 Hz). In the characterization and spatially multiplexed imaging experiments in FIGS. 9R-V, 10D-10G, 10M-10O, neurons were recorded in the GFP emission channel at a single focal plane at 50 milliseconds per frame (20 Hz). […]

Structure (SMILES) | signaling activities induced in neurons (100 μM DHPG for 3 minutes) | signaling activities induced in neurons (100 ng/mL PMA for 3 minutes)
N[C@H](C(=O)O)c1cc(O)cc(O)c1 [DHPG, (S)-3,5-Dihydroxyphenylglycine] | produced increases in cAMP, PKA, PKC, and ERK levels | –
CCCCCCCCCCCCCC(=O)O[C@@H]1[C@@H](C)[C@@]2(O)[C@@H](C=C(CO)C[C@]3(O)C(=O)C(C)=C[C@@H]23)[C@@H]2C(C)(C)[C@]12OC(C)=O [PMA, phorbol 12-myristate 13-acetate] | – | increases of PKC activity
